From patent publication US20160243075A2, “TETRAHYDROCANNABIVARIN (THC) FOR USE IN THE PROTECTION OF PANCREATIC ISLET CELLS” (GW Pharma Limited, priority 2014, published 2016)
“Also recorded” adds a separate entry of the source.

Assays:
[1] = Bodyweight change and food intake of db/db mice over the 28 day study (Example 1); assay type: in vivo; conditions: male db/db mice, 10 mg/kg daily
Description: (§1) The phytocannabinoids CBD (10 mg/kg) and THCV (10 mg/kg) were tested along with AM 251 (10 mg/kg) which was used as a positive control.
(§2) On day 1 dosing commenced for groups A to D as outlined in Table 1.1 above. Animals were dosed daily at 17:00.

[2] = system: pancreatic islet cells; experiment: Histology/morphology of insulin-stained pancreas in diabetic db/db mice (Example 1); assay type: in vivo; conditions: male db/db mice, 10 mg/kg daily
Description: as §1
At the start of the study the Group E animals were sacrificed and a terminal blood sample was taken. In addition four of the animals pancreases were sampled for determination of β-cell area, islet size and β-cell mass by […].
as §2
At the end of the study the animals were sacrificed and a terminal blood sample was taken. In addition four of the animals pancreases were sampled for determination of islet β-cell area, islet size and islet β-cell mass by […].
The pancreases were stained for insulin and the pancreatic islet cells were examined under a microscope to determine the amount of insulin in the cells.

[3] = biological target: CB-1 receptor (Homo sapiens, UniProt P21554); conditions: receptor binding studies, GB 2434097; cited from earlier work
[4] = system: Glucagon-Like Peptide 1 (GLP-1); experiment: Serum glucagon-like peptide 1 (GLP-1) levels, change from baseline, subjects with Type 2 diabetes (Example 3); assay type: in vivo, human; conditions: oral 5 mg THCV twice daily, FIG. 18
Description: Laboratory assessments included; physical examination; markers of vascular function; markers of adipocyte function including leptin and adiponectin; markers of inflammation including cytokines; retinol binding protein (RBP4) concentration; orexin type A (Orexin A) concentration; gut signalling hormone (Gastric Inhibitory Peptide (GIP), Glucagon-like peptide-1 (GLP-1), ghrelin) concentrations; ketone bodies; and endocannabinoid plasma levels.
(§3) The study took place over 15-19 weeks (1-5 week baseline and 13 week treatment period and 1 week follow-up), and was a multicentre, randomised, double blind, placebo controlled, parallel group pilot study which evaluated the test compounds on lipid parameters in subjects with Type 2 diabetes.
(§4) Further study visits took place at the end of Week 4 of treatment (Visit 3, Day 29), and again at the end of treatment at Week 13 (Visit 5, Day 92). Subjects were asked to fast overnight before Visits 1 (or 1B), 2 and 5 (minimum 8 hours). A telephone assessment was also performed at Day 57 (Visit 4) and at Week 14 (Visit 6, Day 99) for safety follow-up.
As this was a pilot study, a formal sample size calculation was not required. Each treatment group consisted of 10 subjects. There was five treatment groups 1:1 and 20:1 ratio of CBD:THCV plus CBD alone, THCV alone and placebo.

[5] = system: beta cell function; experiment: HOMA2 beta cell function, change from baseline, subjects with Type 2 diabetes (Example 3); assay type: in vivo, human; conditions: 5 mg THCV twice daily, end of study period, FIG. 17
Description: (§5) Other measurements including: lipid parameters; glucose control (fasting plasma glucose, glucose tolerance, serum fructosamine, glycosylated haemoglobin A1c (HbA1c) (whole blood)); Insulin sensitivity (insulin resistance); body weight & body mass index (BMI); adipose tissue distribution (total % body fat content, waist circumference, neck circumference, waist-to-hip ratio, visceral adiposity, liver triglyceride content); and appetite 11 point numerical rating scale (0-10 NRS).
as §3, §4
(§6) As this was a pilot study, a formal sample size calculation was not required. Each treatment group consisted of 10 subjects. There was five treatment groups 1:1 and 20:1 ratio of CBD:THCV plus CBD alone, THCV alone and placebo. […]

[6] = Oral glucose tolerance test in subjects with Type 2 diabetes at Visit 5 (Example 3 pilot study); assay type: in vivo, human; conditions: 5 mg THCV twice daily, Visit 5 (Week 13), compared to placebo
Description: There were four arms in this study plus a placebo comparator. These were a 1:1 and 20:1 ratio of CBD:THCV, CBD alone and THCV alone. Assessment of the impact of each treatment on different parameters was made. Measurements were taken of high density lipoprotein (HDL) cholesterol, total cholesterol, low density lipoprotein (LDL) cholesterol, HDL/LDL ratio, serum triglycerides, apolipoprotein markers (Apo A & Apo B) and determination of ApoA/Apo B ratio.
as §5, §3
Further study visits took place at the end of Week 4 of treatment (Visit 3, Day 29), and again at the end of treatment at Week 13 (Visit 5, Day 92). […]

[7] = HOMA2 insulin sensitivity, change from baseline, subjects with Type 2 diabetes (Example 3); assay type: in vivo, human; conditions: 5 mg THCV twice daily, end of study period, FIG. 16
Description: as §5, §3, §4, §6

[8] = Blood samples for glucose and insulin in db/db mice (Example 1); assay type: in vivo
Description: as §1, §2

CB-1 receptor, sequence (P21554 whole entry): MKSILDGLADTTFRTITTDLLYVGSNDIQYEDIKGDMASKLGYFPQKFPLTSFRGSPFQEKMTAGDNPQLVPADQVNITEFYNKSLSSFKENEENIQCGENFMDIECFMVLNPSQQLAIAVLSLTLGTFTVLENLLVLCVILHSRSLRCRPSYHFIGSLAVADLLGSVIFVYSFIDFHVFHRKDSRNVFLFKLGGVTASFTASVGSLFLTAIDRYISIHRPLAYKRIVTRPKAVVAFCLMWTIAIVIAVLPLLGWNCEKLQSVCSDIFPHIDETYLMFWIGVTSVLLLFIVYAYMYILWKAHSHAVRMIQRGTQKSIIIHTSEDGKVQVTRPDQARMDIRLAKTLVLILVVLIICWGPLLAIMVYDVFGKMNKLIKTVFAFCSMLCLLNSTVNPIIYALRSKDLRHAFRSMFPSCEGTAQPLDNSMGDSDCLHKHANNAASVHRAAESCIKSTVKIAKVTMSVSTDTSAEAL

Structure (SMILES)	food intake [1]	retention of insulin in the pancreatic islet (insulin staining, histology) ([2]; 28 day study, FIGS. 2-5, 10 mg/kg)	pancreatic islet beta cell mass (morphological analysis) ([2]; end of study, FIG. 8)	CB-1 receptor pharmacology [3]	change from baseline in mean serum GLP-1 levels [4]	HOMA2 beta cell function, mean change from baseline [5]	concentration of insulin during oral glucose tolerance test, mean change from baseline ([6]; FIG. 14)	concentration of blood glucose during oral glucose tolerance test, mean change from baseline ([6]; FIG. 15)	HOMA2 insulin sensitivity, mean change from baseline [7]	blood glucose concentration during a 24 hour period ([8]; male db/db mice, 10 mg/kg daily, FIG. 7)	reduction in blood glucose ([8]; male db/db mice, 10 mg/kg daily, conclusion of Example 1)	fasting insulin ([8]; rodent model of diabetes)	weight gain (bodyweight change over the study period) ([1]; FIG. 6)
Cc1c(C(=O)NN2CCCCC2)nn(-c2ccc(Cl)cc2Cl)c1-c1ccc(I)cc1 [AM 251]	slightly lower												
CCCc1cc(O)c2c(c1)OC(C)(C)[C@@H]1CCC(C)=C[C@@H]21 [THCV, Tetrahydrocannabivarin]	slightly lower	greater retention of insulin in the pancreatic islet than both AM251 and CBD; also recorded: statistically more insulin present in the pancreatic islets	higher in the THCV treated animals than in the vehicle and CBD and AM251 treated groups	neutral antagonist	highest increase in GLP-1	much increased beta cell function compared to all the other groups	increases over the first hour and then reduces down to the same level as the placebo after 2 hours	quickly reducing the blood glucose level compared to placebo	increased sensitivity to insulin	more controlled during a 24 hour period	without having a profound reduction in blood glucose	reduction in fasting insulin	
C=C(C)[C@@H]1CCC(C)=C[C@H]1c1c(O)cc(CCCCC)cc1O [CBD, cannabidiol]													increased weight gain
